# Results from patent publication US10570184B2, “GLP-1/glucagon receptor co-agonists for medical use” (Novo Nordisk A/S, priority 2014, dated 2020).
# Starred links: 1 amine or outer side, 2 acyl side, 3 side chain; linkers in the order of their positions; H or OH if unused. Non-standard residues stand in square brackets, D forms with d. Residues, ends and D or L forms follow the SMILES beside them. Groups on a side chain read outwards from the residue. *: point of attachment. C18 diacid = O=C(O)CCCCCCCCCCCCCCCCC(=O)*; γGlu = O=C(O)[C@H](CCC(=O)[*:2])N[*:1]; Ac4c = NC1(C(=O)O)CCC1; AEEA = NCCOCCOCC(=O)O; Aib = CC(C)(N)C(=O)O
# Experiments:
# human GLP-1 receptor = molecular target: T1, human GLP-1 receptor (Homo sapiens, UniProt P43220); experiment: Assay (I)(a) GLP-1 receptor activation, CRE luciferase reporter gene assay in BHK cells; format: cell-based; conditions: without presence of serum albumin; read-out: GLP-1R EC50 (pM) [Assay (I)(a)]
# T1 construct: expressed in transfected cells; host or cells: membranes of BHK cells (parent BHKTS13), clone FCW467-12A
# Summary of the method: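 Stable BHK clone expressing human GLP-1 receptor with CRE-driven firefly luciferase, 5×10EE3 cells/well in medium with 2% ovalbumin and 0.2% Pluronic F-68. Compounds at 1×10EE-13 to 1×10EE-6 M final, 3 h at 37° C.; luminescence read, EC50 (pM) from four-parameter fit.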
# [1] = Assay (III) ThT fibrillation assay for physical stability; format: physicochemical; conditions: 250 μM in 10 mM HEPES buffer, 37° C., shaking 960 rpm
# Summary of the method: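 Glucagon derivative at 250 μM in 10 mM HEPES pH 7.5 with 1 μM ThT was incubated at 37 °C under 960 rpm orbital shaking. Fluorescence (ex 444/em 485 nm) was read every 20 min and fitted for lag time (t0−2τ) and kapp (1/τ). Recovery was soluble peptide after centrifugation/filtration, by RP-HPLC, as percent of initial.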
# T1 sequence (P43220 24-463): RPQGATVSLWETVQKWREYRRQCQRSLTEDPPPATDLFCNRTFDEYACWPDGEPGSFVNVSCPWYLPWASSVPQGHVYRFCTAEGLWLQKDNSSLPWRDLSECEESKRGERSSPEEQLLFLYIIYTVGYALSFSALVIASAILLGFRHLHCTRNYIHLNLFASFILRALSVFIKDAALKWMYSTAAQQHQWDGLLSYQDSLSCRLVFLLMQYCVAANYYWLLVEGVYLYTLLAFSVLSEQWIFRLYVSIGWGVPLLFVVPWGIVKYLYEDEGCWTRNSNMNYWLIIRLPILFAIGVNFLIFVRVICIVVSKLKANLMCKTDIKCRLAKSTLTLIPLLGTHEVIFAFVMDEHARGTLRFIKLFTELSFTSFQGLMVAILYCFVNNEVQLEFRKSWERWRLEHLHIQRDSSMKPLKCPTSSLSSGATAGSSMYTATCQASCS
Structure (SMILES),EC50 (human GLP-1 receptor) [pM],"ThT Assay Lag time (h) [Assay (III), pH 7.5] [1] [h]"
"CC[C@H](C)[C@H](NC(=O)[C@H](CC(C)C)NC(=O)[C@H](Cc1c[nH]c2ccccc12)NC(=O)[C@H](C)NC(=O)[C@@H](NC(=O)[C@H](Cc1ccccc1)NC(=O)[C@H](CC(=O)O)NC(=O)[C@H](CCCNC(=N)N)NC(=O)[C@H](C)NC(=O)[C@H](CCCNC(=N)N)NC(=O)[C@H](CCCNC(=N)N)NC(=O)[C@H](CC(C)C)NC(=O)[C@H](CC(=O)O)NC(=O)[C@H](CC(C)C)NC(=O)[C@H](Cc1ccc(O)cc1)NC(=O)[C@H](CCCCN)NC(=O)[C@H](CO)NC(=O)[C@H](CC(C)C)NC(=O)[C@H](CC(=O)O)NC(=O)[C@H](CO)NC(=O)[C@@H](NC(=O)[C@H](Cc1ccccc1)NC(=O)[C@@H](NC(=O)CNC(=O)[C@H](CCC(N)=O)NC(=O)C(C)(C)NC(=O)[C@@H](N)Cc1c[nH]cn1)[C@@H](C)O)[C@@H](C)O)C(C)C)C(=O)N[C@@H](CC(N)=O)C(=O)N[C@@H](CCCCNC(=O)CC[C@H](NC(=O)CC[C@H](NC(=O)COCCOCCNC(=O)COCCOCCNC(=O)CC[C@H](NC(=O)CCCCCCCCCCCCCCCCC(=O)O)C(=O)O)C(=O)O)C(=O)O)C(N)=O [Chem. 24, N^ε29-[(4S)-4-carboxy-4-[[(4S)-4-carboxy-4-[[2-[2-[2-[[2-[2-[2-[[(4S)-4-carboxy-4-(17-carboxyheptadecanoylamino)butanoyl]amino]ethoxy]ethoxy]acetyl]amino]ethoxy]ethoxy]acetyl]amino]butanoyl]amino]butanoyl]-[Aib2,Leu10,Leu16,Arg20,Ala24,Ile27,Lys29]-Glucagon amide] (H-H[Aib]QGTFTSDLSKYLDLRRARDFVAWLINK([γGlu-γGlu-AEEA-AEEA-γGlu-C18 diacid])-NH2; N-terminus assumed)",3,45.0
"CC[C@H](C)[C@H](NC(=O)[C@H](CC(C)C)NC(=O)[C@H](Cc1c[nH]c2ccccc12)NC(=O)[C@H](CCC(N)=O)NC(=O)[C@@H](NC(=O)[C@H](Cc1ccccc1)NC(=O)[C@H](CCC(=O)O)NC(=O)[C@H](CCC(N)=O)NC(=O)[C@H](C)NC(=O)[C@H](CCCNC(=N)N)NC(=O)[C@H](CCCNC(=N)N)NC(=O)[C@H](CO)NC(=O)[C@H](CCC(=O)O)NC(=O)[C@H](CC(C)C)NC(=O)[C@H](Cc1ccc(O)cc1)NC(=O)[C@H](CCCCN)NC(=O)[C@H](CO)NC(=O)[C@H](CC(C)C)NC(=O)[C@H](CC(=O)O)NC(=O)[C@H](CO)NC(=O)[C@@H](NC(=O)[C@H](Cc1ccccc1)NC(=O)[C@@H](NC(=O)CNC(=O)[C@H](CCC(N)=O)NC(=O)C1(NC(=O)[C@@H](N)Cc2c[nH]cn2)CCC1)[C@@H](C)O)[C@@H](C)O)C(C)C)C(=O)N[C@@H](CCCCNC(=O)CC[C@H](NC(=O)COCCOCCNC(=O)COCCOCCNC(=O)CC[C@H](NC(=O)CC[C@H](NC(=O)CCCCCCCCCCCCCCCCC(=O)O)C(=O)O)C(=O)O)C(=O)O)C(=O)N[C@H](C(N)=O)[C@@H](C)O [Chem. 38, N^ε28-[(4S)-4-carboxy-4-[[2-[2-[2-[[2-[2-[2-[[(4S)-4-carboxy-4-[[(4S)-4-carboxy-4-(17-carboxyheptadecanoylamino)butanoyl]amino]butanoyl]amino]ethoxy]ethoxy]acetyl]amino]ethoxy]ethoxy]acetyl]amino]butanoyl]-[Acb2,Leu10,Glu15,Glu21,Ile27,Lys28]-Glucagon amide] (H-H[Ac4c]QGTFTSDLSKYLESRRAQEFVQWLIK([γGlu-AEEA-AEEA-γGlu-γGlu-C18 diacid])T-NH2; N-terminus assumed)",2,45.0
